# Columns and labels:
# [1] = tested on: K. pneumoniae KPNIH1; experiment: microbe, parasite or virus in culture; assay type: cell-based; conditions: Klebsiella pneumoniae
# [2] = tested on: S. aureus; conditions: ref 8 (Flamm et al., 2017); cited from earlier work
# [3] = target: Human topo IIß (Homo sapiens, UniProt Q02880); experiment: Human topo IIß decatenation assay; assay type: biochemical
# Method: (§1) Human topo IIα (0.9 nM) and topo IIß (2.2 nM) decatenation assays were performed following the same protocol used for bacterial topoisomerase IV decatenation assays. The assay buffer was made of 50 mM Tris. HCl (pH 7.5), 125 mM NaCl, 10 mM MgCl2, 5 mM DTT, and 100 μg/mL albumin.
# [4] = tested on: K. pneumoniae BAA 2782; experiment: microbe, parasite or virus in culture; assay type: cell-based; conditions: Klebsiella pneumoniae, BAA2782
# [5] = target: Human topo IIα (Homo sapiens, UniProt P11388); experiment: Human topo IIα decatenation assay; assay type: biochemical; conditions: read-out: IC50 Human topo IIα decatenation
# Human topo IIα, sequence (P11388 whole entry): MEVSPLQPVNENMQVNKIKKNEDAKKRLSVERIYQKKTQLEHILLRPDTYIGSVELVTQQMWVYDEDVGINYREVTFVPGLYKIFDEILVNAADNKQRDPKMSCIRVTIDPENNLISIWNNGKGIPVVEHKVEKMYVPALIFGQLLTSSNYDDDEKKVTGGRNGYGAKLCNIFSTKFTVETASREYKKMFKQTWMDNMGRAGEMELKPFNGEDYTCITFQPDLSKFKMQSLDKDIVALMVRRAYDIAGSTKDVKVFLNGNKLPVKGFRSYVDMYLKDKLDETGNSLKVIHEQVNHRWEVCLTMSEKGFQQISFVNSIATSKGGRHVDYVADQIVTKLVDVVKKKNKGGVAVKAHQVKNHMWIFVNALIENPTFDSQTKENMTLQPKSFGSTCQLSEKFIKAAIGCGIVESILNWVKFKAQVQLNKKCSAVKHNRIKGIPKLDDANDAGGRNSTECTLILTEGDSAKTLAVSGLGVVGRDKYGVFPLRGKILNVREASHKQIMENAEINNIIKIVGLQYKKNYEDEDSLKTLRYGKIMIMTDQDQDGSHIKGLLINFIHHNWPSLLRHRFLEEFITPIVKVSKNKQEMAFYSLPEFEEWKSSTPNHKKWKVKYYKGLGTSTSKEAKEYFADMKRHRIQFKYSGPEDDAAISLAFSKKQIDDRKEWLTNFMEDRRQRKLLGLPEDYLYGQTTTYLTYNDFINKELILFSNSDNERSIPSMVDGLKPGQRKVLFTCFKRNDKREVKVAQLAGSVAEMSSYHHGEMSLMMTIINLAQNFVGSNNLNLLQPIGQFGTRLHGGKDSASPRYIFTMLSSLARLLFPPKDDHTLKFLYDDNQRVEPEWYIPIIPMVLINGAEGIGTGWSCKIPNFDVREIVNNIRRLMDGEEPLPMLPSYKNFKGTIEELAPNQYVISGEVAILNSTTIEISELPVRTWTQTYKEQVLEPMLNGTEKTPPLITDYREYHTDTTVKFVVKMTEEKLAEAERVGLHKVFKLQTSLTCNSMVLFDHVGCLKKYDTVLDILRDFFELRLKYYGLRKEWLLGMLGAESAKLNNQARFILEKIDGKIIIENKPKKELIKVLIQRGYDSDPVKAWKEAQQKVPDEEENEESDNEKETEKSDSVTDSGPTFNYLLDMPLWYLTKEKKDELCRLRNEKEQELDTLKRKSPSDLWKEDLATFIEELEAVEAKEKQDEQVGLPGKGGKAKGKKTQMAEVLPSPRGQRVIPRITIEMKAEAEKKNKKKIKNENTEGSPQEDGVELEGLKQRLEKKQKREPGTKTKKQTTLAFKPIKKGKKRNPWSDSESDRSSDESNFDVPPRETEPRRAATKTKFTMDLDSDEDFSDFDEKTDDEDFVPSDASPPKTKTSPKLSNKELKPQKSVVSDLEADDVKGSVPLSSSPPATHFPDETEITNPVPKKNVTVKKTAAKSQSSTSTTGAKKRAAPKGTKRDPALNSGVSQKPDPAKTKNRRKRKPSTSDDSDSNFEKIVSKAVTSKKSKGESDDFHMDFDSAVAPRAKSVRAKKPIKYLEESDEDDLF
# Method: as §1
# [6] = tested on: P. aeruginosa BAA 2797; experiment: microbe, parasite or virus in culture; assay type: cell-based; conditions: Pseudomonas aeruginosa, BAA2797
# [7] = tested on: E. coli MG1655 GyrA M120A, ParC M118A; experiment: microbe, parasite or virus in culture; assay type: cell-based; conditions: Escherichia coli
# [8] = tested on: E. cloacae; conditions: ref 7 (Arends et al., 2019); cited from earlier work
# [9] = tested on: E. coli BAA 2471; experiment: microbe, parasite or virus in culture; assay type: cell-based; conditions: Escherichia coli, BAA2471
# [10] = tested on: K. pneumoniae ATCC 13883; experiment: MIC broth microdilution; assay type: cell-based; conditions: Klebsiella pneumoniae, ATCC13883
# [11] = tested on: E. coli ATCC 25922; experiment: MIC broth microdilution; assay type: cell-based; conditions: Escherichia coli, ATCC25922
# [12] = tested on: K. pneumoniae BAA 2784; experiment: microbe, parasite or virus in culture; assay type: cell-based; conditions: Klebsiella pneumoniae, BAA2784
# [13] = tested on: A. baumannii BAA 2885; experiment: microbe, parasite or virus in culture; assay type: cell-based; conditions: Acinetobacter baumannii, BAA2885
# [14] = tested on: E. coli MG1655 (GyrA WT, ParC WT); experiment: microbe, parasite or virus in culture; assay type: cell-based; conditions: Escherichia coli
# [15] = tested on: E. coli MG1655 GyrA D82N, ParC D79N; experiment: microbe, parasite or virus in culture; assay type: cell-based; conditions: Escherichia coli
# [16] = tested on: E. coli MG1655 GyrA R121K, ParC WT; experiment: microbe, parasite or virus in culture; assay type: cell-based; conditions: Escherichia coli
# [17] = tested on: A. baumannii ATCC 19606; experiment: MIC broth microdilution; assay type: cell-based; conditions: Acinetobacter baumannii, ATCC19606
# [18] = target: P. aeruginosa topoisomerase IV (Pseudomonas aeruginosa, UniProt Q9HUJ8+Q9HUK1); experiment: Topoisomerase IV decatenation assay, P. aeruginosa; assay type: biochemical
# Method: Topoisomerase IV decatenation reactions were performed using 2.5 nM E. coli enzyme and 60 ng kinetoplast DNA (kDNA) in an assay buffer containing 50 mM HEPES-KOH (pH 7.6), 100 mM potassium glutamate, 10 mM magnesium acetate, 10 mM DTT, 1 mM ATP, and 50 μg/mL albumin. Assays with P. aeruginosa topoisomerase IV (3 nM) were conducted in a similar buffer but with 50 mM HEPES-KOH (pH 7.9), 100 mM potassium glutamate, 6 mM magnesium acetate, 6 mM DTT, 1 mM ATP, 2 mM spermidine, and 50 μg/mL albumin. For S. aureus topoisomerase IV assay, the reactions contained 4 nM enzyme in an assay buffer composed of 50 mM Tris-HCl (pH 7.5), 5 mM MgCl₂, 5 mM DTT, 1.5 mM ATP, 350 mM potassium glutamate, and 0.05 mg/mL albumin. The procedures followed were consistent with those used in the supercoiling assays. Decatenated minicircles were resolved on 0.8% agarose gels, while the kDNA substrate remained in the wells. Gels were stained with 0.8 μg/mL ethidium bromide solution for 10 min, followed by destaining. DNA bands were visualized using a gel documentation system, and compound inhibition analysis was carried out using the same procedures described for the supercoiling assays.
# [19] = tested on: E. coli MG1655 GyrA WT, ParC R119K; experiment: microbe, parasite or virus in culture; assay type: cell-based; conditions: Escherichia coli
# [20] = tested on: E. coli MG1655 GyrA D82N, ParC WT; experiment: microbe, parasite or virus in culture; assay type: cell-based; conditions: Escherichia coli
# [21] = tested on: K. pneumoniae; conditions: ref 7 (Arends et al., 2019); cited from earlier work
# [22] = tested on: E. coli ATCC 25922; experiment: Resistant mutant generation by serial passage method; assay type: cell-based; conditions: Escherichia coli, read-out: MIC, serial passage
# [23] = tested on: E. faecalis; parameters: method as in ref 7 (Arends et al., 2019); conditions: ref 7 (Arends et al., 2019); cited from earlier work
# [24] = target: P. aeruginosa gyrase (Pseudomonas aeruginosa, UniProt P48372+Q9I7C2); experiment: biochemical
# P. aeruginosa gyrase, sequence (Q9I7C2 whole entry): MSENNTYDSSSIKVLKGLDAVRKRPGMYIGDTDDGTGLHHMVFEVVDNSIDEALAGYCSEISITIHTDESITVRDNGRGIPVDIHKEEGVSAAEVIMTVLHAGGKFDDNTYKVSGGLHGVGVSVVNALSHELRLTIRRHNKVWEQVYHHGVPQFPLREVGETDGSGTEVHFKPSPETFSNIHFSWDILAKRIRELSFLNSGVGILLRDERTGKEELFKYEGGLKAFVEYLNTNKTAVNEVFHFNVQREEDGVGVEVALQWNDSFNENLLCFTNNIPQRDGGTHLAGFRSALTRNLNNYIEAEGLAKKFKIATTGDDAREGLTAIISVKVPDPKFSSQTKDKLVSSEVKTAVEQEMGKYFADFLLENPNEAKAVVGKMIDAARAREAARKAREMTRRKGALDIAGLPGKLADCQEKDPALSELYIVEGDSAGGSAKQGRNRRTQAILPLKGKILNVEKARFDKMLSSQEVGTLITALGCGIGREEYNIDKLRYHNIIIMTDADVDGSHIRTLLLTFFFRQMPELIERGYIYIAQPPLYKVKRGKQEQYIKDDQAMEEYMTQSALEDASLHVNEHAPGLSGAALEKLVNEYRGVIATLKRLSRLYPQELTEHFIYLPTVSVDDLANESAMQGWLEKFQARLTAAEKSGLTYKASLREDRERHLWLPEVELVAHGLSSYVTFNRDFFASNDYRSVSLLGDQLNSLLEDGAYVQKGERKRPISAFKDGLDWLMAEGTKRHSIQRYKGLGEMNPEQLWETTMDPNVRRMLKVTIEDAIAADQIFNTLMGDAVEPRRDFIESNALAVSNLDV
# P. aeruginosa gyrase, sequence (P48372 whole entry): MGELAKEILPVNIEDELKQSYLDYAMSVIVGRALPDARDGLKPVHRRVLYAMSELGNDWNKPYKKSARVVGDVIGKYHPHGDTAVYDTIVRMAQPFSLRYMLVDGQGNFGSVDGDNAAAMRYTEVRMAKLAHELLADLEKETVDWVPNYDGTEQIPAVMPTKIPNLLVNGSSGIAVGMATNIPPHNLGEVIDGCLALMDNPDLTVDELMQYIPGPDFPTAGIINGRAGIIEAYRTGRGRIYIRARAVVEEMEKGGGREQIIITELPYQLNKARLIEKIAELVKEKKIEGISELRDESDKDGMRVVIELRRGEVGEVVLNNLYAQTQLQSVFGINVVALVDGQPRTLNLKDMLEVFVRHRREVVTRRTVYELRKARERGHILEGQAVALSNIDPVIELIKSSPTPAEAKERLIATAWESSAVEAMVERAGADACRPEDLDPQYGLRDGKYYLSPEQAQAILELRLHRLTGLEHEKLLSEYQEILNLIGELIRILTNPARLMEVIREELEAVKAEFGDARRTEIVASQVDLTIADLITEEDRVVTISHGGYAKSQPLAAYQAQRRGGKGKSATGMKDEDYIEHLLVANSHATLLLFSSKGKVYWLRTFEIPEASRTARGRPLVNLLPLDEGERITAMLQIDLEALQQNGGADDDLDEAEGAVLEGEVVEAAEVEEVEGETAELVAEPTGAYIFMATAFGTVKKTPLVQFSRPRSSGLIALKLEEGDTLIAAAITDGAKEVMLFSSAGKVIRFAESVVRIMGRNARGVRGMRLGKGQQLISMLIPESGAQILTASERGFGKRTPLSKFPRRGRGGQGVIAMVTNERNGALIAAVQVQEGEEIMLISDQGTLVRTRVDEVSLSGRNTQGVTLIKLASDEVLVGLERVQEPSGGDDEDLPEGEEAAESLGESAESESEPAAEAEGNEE
# [25] = tested on: P. aeruginosa BAA 2794; experiment: microbe, parasite or virus in culture; assay type: cell-based; conditions: Pseudomonas aeruginosa, BAA2794
# [26] = tested on: E. coli; conditions: ref 8 (Flamm et al., 2017); cited from earlier work
# [27] = tested on: E. coli BAA 2469; experiment: microbe, parasite or virus in culture; assay type: cell-based; conditions: Escherichia coli, BAA2469
# [28] = tested on: E. faecalis ATCC 29212; experiment: MIC broth microdilution; assay type: cell-based; conditions: Enterococcus faecalis, ATCC29212
# [29] = tested on: P. aeruginosa ATCC 27853; experiment: MIC broth microdilution; assay type: cell-based; conditions: Pseudomonas aeruginosa, ATCC27853
# [30] = tested on: S. aureus ATCC 29213; experiment: MIC broth microdilution; assay type: cell-based; conditions: Staphylococcus aureus, ATCC29213
# [31] = tested on: E. coli MG1655 GyrA WT, ParC D79N; experiment: microbe, parasite or virus in culture; assay type: cell-based; conditions: Escherichia coli
# Human topo IIß, sequence (Q02880 whole entry): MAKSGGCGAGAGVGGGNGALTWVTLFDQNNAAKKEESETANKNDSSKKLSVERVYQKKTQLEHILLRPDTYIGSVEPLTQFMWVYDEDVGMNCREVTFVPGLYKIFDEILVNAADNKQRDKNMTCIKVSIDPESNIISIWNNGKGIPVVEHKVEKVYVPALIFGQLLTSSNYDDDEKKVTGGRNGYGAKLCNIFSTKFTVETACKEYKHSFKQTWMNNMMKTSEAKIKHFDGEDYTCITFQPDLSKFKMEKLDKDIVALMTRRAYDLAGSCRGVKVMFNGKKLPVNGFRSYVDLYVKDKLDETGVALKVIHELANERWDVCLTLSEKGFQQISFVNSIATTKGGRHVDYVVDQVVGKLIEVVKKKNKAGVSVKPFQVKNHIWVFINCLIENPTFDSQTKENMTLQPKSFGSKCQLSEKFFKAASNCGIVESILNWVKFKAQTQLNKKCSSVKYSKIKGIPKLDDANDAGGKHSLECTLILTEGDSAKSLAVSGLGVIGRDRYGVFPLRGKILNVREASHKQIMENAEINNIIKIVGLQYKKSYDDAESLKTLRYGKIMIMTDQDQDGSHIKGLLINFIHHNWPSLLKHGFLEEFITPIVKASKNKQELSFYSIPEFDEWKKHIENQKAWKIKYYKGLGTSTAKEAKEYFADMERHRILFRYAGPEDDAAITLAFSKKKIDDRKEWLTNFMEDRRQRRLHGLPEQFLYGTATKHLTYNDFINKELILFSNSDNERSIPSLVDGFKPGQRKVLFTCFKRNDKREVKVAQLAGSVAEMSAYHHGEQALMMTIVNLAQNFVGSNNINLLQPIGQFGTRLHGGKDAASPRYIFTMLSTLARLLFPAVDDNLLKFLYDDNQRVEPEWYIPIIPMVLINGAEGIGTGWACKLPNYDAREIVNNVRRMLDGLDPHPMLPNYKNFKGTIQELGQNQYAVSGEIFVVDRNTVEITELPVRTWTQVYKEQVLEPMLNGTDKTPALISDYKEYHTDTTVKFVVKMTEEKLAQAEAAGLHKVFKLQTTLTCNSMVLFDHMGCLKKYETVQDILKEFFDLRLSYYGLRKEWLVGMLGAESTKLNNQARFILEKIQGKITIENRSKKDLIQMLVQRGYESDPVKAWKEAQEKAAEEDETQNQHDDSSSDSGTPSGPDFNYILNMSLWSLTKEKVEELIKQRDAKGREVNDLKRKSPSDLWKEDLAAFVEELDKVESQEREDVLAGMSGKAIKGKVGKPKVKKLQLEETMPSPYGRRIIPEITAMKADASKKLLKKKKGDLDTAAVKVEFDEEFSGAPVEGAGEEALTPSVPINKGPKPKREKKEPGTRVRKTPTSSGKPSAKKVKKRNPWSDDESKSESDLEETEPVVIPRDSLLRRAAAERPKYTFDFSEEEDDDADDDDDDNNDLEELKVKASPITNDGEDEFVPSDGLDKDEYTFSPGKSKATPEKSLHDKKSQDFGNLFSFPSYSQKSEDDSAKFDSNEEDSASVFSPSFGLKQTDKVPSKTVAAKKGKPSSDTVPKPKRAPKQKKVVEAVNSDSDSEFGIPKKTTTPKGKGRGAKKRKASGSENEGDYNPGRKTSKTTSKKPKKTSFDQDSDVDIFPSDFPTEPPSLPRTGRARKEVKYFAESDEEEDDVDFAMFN
smiles,measurement,setting,value
"O=c1ccc2ncc(=O)n3c2n1C[C@H]3CN1CCC(NCc2cc3c(cn2)OCCC3)CC1 [Gepotidacin, reference compound]",MIC,[1],8 µg/mL
same,MIC90 against diverse global isolates,[2],0.5 µg/mL
same,IC50,[3],> 200000 nM
same,MIC,[4],1 µg/mL
same,IC50,[5],> 200000 nM
same,MIC,[6],1 µg/mL
same,MIC,[7],0.63 µg/mL
same,MIC90 against diverse global isolates,[8],16 µg/mL
same,MIC,[9],2 µg/mL
same,MIC,[10],1 µg/mL
same,MIC,[11],0.5 µg/mL
same,MIC,[12],1 µg/mL
same,MIC,[13],2 µg/mL
same,MIC,[14],0.47 µg/mL
same,MIC,[15],> 40 µg/mL
same,MIC,[16],0.13 µg/mL
same,MIC,[17],2 µg/mL
same,IC50,[18],1560 nM
same,MIC,[19],0.42 µg/mL
same,MIC,[20],0.42 µg/mL
same,MIC90 against diverse global isolates,[21],16 µg/mL
same,MIC,"[22]; ATCC25922, 24 h",0.25 µg/mL
same,MIC,"[22]; ATCC25922, 288 h",1.25 µg/mL
same,MIC90 against diverse global isolates,[23],2 µg/mL
same,IC50,[24],350 nM
same,MIC,[25],0.5 µg/mL
same,MIC90 against diverse global isolates,[26],4 µg/mL
same,MIC,[27],0.5 µg/mL
same,MIC,[28],1 µg/mL
same,MIC,[29],1 µg/mL
same,MIC,[30],0.125 µg/mL
same,MIC,[31],0.83 µg/mL
